Values belong to the compound of their own block, whether it stands above or below them. The source made the active and inactive calls. No cut-off for these calls is given here.
Experiments:
Neutrophil [1] = test: Inhibition of oxidative burst in PMA-stimulated human neutrophils assessed as inhibition of H2O2-induced oxidation of amplex red up to 100 uM incubated for 5 mins prior to PMA challenge by fluorescence assay; type: functional
Neutrophil [2] = test: Inhibition of oxidative burst in PMA-stimulated human neutrophils assessed as inhibition of ROS-induced luminol oxidation up to 100 uM incubated for 5 mins prior to PMA challenge by chemiluminescence assay; type: functional
[3] = Cytotoxicity against human neutrophils assessed as cell viability at 100 uM after 1 hr by trypan blue exclusion assay; type: cell-based, Neutrophil; settings: read-out: Activity
Neutrophil [4] = test: Inhibition of oxidative burst in PMA-stimulated human neutrophils assessed as inhibition of superoxide anion radical-induced lucigenin oxidation incubated for 5 mins prior to PMA challenge by chemiluminescence assay; type: functional, cell-based
Neutrophil [5] = test: Inhibition of oxidative burst in PMA-stimulated human neutrophils assessed as inhibition of H2O2-induced oxidation of amplex red at 40 uM incubated for 5 mins prior to PMA challenge by fluorescence assay; type: functional
Neutrophil [6] = test: Inhibition of oxidative burst in PMA-stimulated human neutrophils assessed as inhibition of ROS-induced luminol oxidation incubated for 5 mins prior to PMA challenge by chemiluminescence assay; type: functional, cell-based
Neutrophil [7] = test: Inhibition of oxidative burst in PMA-stimulated human neutrophils assessed as inhibition of H2O2-induced oxidation of amplex red incubated for 5 mins prior to PMA challenge by fluorescence assay; type: functional, cell-based
Neutrophil [8] = test: Inhibition of oxidative burst in PMA-stimulated human neutrophils assessed as inhibition of HOCl-induced oxidation of APF after 6 mins by fluorescence assay; type: functional, cell-based; settings: 0.1 h
[9] = biological target: T1, Myeloperoxidase (Homo sapiens) (UniProt P05164); test: Inhibition of MPO (unknown origin); settings: concentration not given here
T1 sequence (whole entry): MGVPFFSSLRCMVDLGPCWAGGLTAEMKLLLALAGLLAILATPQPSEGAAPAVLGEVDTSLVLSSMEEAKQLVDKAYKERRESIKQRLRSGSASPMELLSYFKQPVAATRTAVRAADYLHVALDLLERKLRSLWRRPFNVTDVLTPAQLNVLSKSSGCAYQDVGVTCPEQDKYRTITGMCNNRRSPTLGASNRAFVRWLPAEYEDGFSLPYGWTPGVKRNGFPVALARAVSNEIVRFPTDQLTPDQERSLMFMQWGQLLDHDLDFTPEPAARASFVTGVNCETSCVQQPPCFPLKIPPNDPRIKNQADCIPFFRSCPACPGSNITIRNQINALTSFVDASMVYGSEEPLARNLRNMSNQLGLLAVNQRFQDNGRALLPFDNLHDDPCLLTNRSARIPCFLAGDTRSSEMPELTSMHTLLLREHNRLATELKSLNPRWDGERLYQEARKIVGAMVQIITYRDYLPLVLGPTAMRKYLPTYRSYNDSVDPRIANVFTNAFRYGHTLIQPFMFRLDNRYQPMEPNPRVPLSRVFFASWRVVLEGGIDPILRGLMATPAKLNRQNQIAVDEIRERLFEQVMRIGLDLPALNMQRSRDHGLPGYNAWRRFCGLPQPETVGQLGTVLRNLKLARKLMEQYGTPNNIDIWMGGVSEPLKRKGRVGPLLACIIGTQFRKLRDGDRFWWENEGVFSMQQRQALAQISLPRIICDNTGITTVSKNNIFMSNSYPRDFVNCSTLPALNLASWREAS

Neutrophil [10] = test: Inhibition of oxidative burst in PMA-stimulated human neutrophils assessed as inhibition of ROS-induced luminol oxidation at 25 uM incubated for 5 mins prior to PMA challenge by chemiluminescence assay; type: functional
Neutrophil [11] = test: Inhibition of oxidative burst in PMA-stimulated human neutrophils assessed as inhibition of HOCl-induced oxidation of APF up to 100 uM after 6 mins by fluorescence assay; type: functional, cell-based
Neutrophil [12] = test: Inhibition of oxidative burst in PMA-stimulated human neutrophils assessed as inhibition of superoxide anion radical-induced lucigenin oxidation up to 100 uM incubated for 5 mins prior to PMA challenge by chemiluminescence assay; type: functional

SMILES: O=c1cc(-c2cccc(O)c2)oc2cccc(O)c12
inhibition (INH) (Neutrophil [1]): <40%
viability at 1 h, 100 µM [3]: > 98%
IC50 (Neutrophil [4]): 32 µM
inhibition at 40 µM (Neutrophil [5]): 20%
IC50 (Neutrophil [6]): 14.5 µM

SMILES: O=c1cc(-c2ccc(O)c(O)c2)oc2cc(O)ccc12
viability at 1 h, 100 µM [3]: > 98%
IC50 (Neutrophil [4]): 14.7 µM
IC50 (Neutrophil [7]): 3.7 µM
IC50 (Neutrophil [8]): 5.2 µM
IC50 (Neutrophil [6]): 13.5 µM

SMILES: O=C1CC(c2ccc(O)cc2)Oc2cc(O)cc(O)c21 (racemic)
inhibition (INH) (Neutrophil [1]): <40%
viability at 1 h, 100 µM [3]: > 98%
IC50 (Neutrophil [4]): 31 µM
IC50 (Neutrophil [6]): 51.4 µM

SMILES: O=c1cc(-c2ccc(O)c(O)c2)oc2ccccc12
viability at 1 h, 100 µM [3]: > 98%
IC50 (Neutrophil [4]): 8.1 µM
IC50 (Neutrophil [7]): 3.2 µM
IC50 (Neutrophil [8]): 0.9 µM
IC50 (Neutrophil [6]): 3 µM

SMILES: O=C1c2c(O)cc(O)cc2O[C@H](c2ccc(O)c(O)c2)[C@H]1O [(+)-TAXIFOLIN]
viability at 1 h, 100 µM [3]: > 98%
inhibition [9]: 40%
IC50 (Neutrophil [4]): 15.5 µM
IC50 (Neutrophil [7]): 41.3 µM
IC50 (Neutrophil [8]): 15.3 µM
IC50 (Neutrophil [6]): 53.5 µM

SMILES: O=c1cc(-c2ccc(O)c(O)c2)oc2cc(O)cc(O)c12 [LUTEOLIN]
viability at 1 h, 100 µM [3]: > 98%
IC50 (Neutrophil [4]): 9.5 µM
IC50 (Neutrophil [7]): 4 µM
IC50 (Neutrophil [8]): 0.9 µM
IC50 (Neutrophil [6]): 9.3 µM

SMILES: O=c1cc(-c2cccc(O)c2)oc2ccccc12
inhibition (INH) (Neutrophil [1]): <40%
viability at 1 h, 100 µM [3]: > 98%
IC50 (Neutrophil [4]): 47 µM
inhibition at 40 µM (Neutrophil [5]): 17%
IC50 (Neutrophil [6]): 24 µM

SMILES: O=c1cc(-c2ccccc2)oc2cc(O)cc(O)c12 [CHRYSIN]
inhibition (Neutrophil [11]): inactive
viability at 1 h, 100 µM [3]: > 98%
IC50 (Neutrophil [4]): 9.59 µM
inhibition (Neutrophil [7]): inactive
IC50 (Neutrophil [6]): 53 µM

SMILES: COc1ccc(-c2cc(=O)c3c(O)cc(O)cc3o2)cc1O [DIOSMETIN]
IC50 (Neutrophil [4]): 15 µM
IC50 (Neutrophil [7]): 10.3 µM
IC50 (Neutrophil [8]): 0.7 µM
IC50 (Neutrophil [6]): 3.6 µM

SMILES: COc1ccc(-c2cc(=O)c3c(O)cc(O)cc3o2)cc1 [ACACETIN]
inhibition (Neutrophil [11]): inactive
inhibition (INH) (Neutrophil [2]): <40%
viability at 1 h, 100 µM [3]: > 98%
inhibition at 25 µM (Neutrophil [10]): 26.7%
IC50 (Neutrophil [4]): 7 µM
inhibition (Neutrophil [7]): inactive

SMILES: O=c1cc(-c2ccccc2)oc2cc(O)ccc12 [7-HYDROXYFLAVONE]
inhibition (INH) (Neutrophil [1]): <40%
inhibition (INH) (Neutrophil [2]): <40%
viability at 1 h, 100 µM [3]: > 98%
IC50 (Neutrophil [4]): 33 µM

SMILES: NNC(=O)c1ccc(N)cc1
IC50 (Neutrophil [8]): 30.6 µM
IC50 (Neutrophil [6]): 43.6 µM

SMILES: O=c1c(O)c(-c2ccc(O)c(O)c2)oc2cc(O)cc(O)c12 [QUERCETIN]
viability at 1 h, 100 µM [3]: > 98%
IC50 (Neutrophil [4]): 11.3 µM
IC50 (Neutrophil [7]): 8 µM
IC50 (Neutrophil [8]): 0.7 µM
IC50 (Neutrophil [6]): 26 µM

Continued, in another order:

IC50 (Neutrophil [4]): 26.9 µM
SMILES: O=c1cc(-c2ccc(O)cc2)oc2cc(O)ccc12
inhibition (INH) (Neutrophil [1]): <40%
inhibition (INH) (Neutrophil [2]): <40%
viability at 1 h, 100 µM [3]: > 98%

IC50 (Neutrophil [4]): 34.8 µM
IC50 (Neutrophil [7]): 79.6 µM
IC50 (Neutrophil [6]): 37.4 µM
SMILES: O=c1cc(-c2cccc(O)c2)oc2cc(O)ccc12
viability at 1 h, 100 µM [3]: > 98%

IC50 (Neutrophil [4]): 7.1 µM
IC50 (Neutrophil [7]): 8.6 µM
IC50 (Neutrophil [8]): 0.4 µM
IC50 (Neutrophil [6]): 2.8 µM
SMILES: COc1cc(-c2cc(=O)c3c(O)cc(O)cc3o2)ccc1O [CHRYSOERIOL]

IC50 (Neutrophil [4]): 96 µM
SMILES: O=c1cc(-c2ccccc2)oc2cccc(O)c12 [5-HYDROXYFLAVONE]
inhibition (INH) (Neutrophil [2]): <40%
viability at 1 h, 100 µM [3]: > 98%
inhibition at 25 µM (Neutrophil [10]): 30.1%
inhibition (Neutrophil [7]): inactive

IC50 (Neutrophil [4]): 4.9 µM
IC50 (Neutrophil [7]): 3.2 µM
IC50 (Neutrophil [8]): 0.39 µM
IC50 (Neutrophil [6]): 1.6 µM
SMILES: O=c1cc(-c2ccc(O)c(O)c2)oc2cccc(O)c12
viability at 1 h, 100 µM [3]: > 98%

IC50 (Neutrophil [6]): 40.3 µM
SMILES: O=c1cc(-c2ccc(O)cc2)oc2ccccc12
inhibition (INH) (Neutrophil [12]): <40%
viability at 1 h, 100 µM [3]: > 98%
inhibition (Neutrophil [7]): inactive

IC50 (Neutrophil [4]): 67.8 µM
IC50 (Neutrophil [6]): 18 µM
SMILES: O=c1cc(-c2ccc(O)cc2)oc2cccc(O)c12
inhibition (INH) (Neutrophil [1]): <40%
viability at 1 h, 100 µM [3]: > 98%
inhibition at 40 µM (Neutrophil [5]): 20%

IC50 (Neutrophil [4]): 15.8 µM
IC50 (Neutrophil [8]): 65.4 µM
IC50 (Neutrophil [6]): 10 µM
SMILES: O=c1cc(-c2cccc(O)c2)oc2cc(O)cc(O)c12
inhibition (INH) (Neutrophil [1]): <40%
viability at 1 h, 100 µM [3]: > 98%

IC50 (Neutrophil [4]): 57 µM
IC50 (Neutrophil [8]): 64.9 µM
SMILES: O=c1cc(-c2ccccc2)oc2ccccc12 [FLAVONE]
inhibition (INH) (Neutrophil [2]): <40%
viability at 1 h, 100 µM [3]: > 98%
inhibition (Neutrophil [7]): inactive

IC50 (Neutrophil [4]): 16 µM
IC50 (Neutrophil [8]): 3.33 µM
IC50 (Neutrophil [6]): 57.6 µM
SMILES: COc1ccc(-c2cc(=O)c3c(O)cc(O)cc3o2)cc1OC
inhibition (INH) (Neutrophil [1]): <40%
viability at 1 h, 100 µM [3]: > 98%

inhibition [9]: 40%
IC50 (Neutrophil [4]): 15.5 µM
IC50 (Neutrophil [7]): 4 µM
IC50 (Neutrophil [8]): 1.4 µM
IC50 (Neutrophil [6]): 18 µM
SMILES: O=C1CC(c2ccc(O)c(O)c2)Oc2cc(O)cc(O)c21 (racemic)
viability at 1 h, 100 µM [3]: > 98%

IC50 (Neutrophil [4]): 7.7 µM
IC50 (Neutrophil [7]): 16.2 µM
IC50 (Neutrophil [8]): 12.3 µM
IC50 (Neutrophil [6]): 24 µM
SMILES: O=c1cc(-c2ccc(O)cc2)oc2cc(O)cc(O)c12 [APIGENIN]
viability at 1 h, 100 µM [3]: > 98%
